Data as given in patent US4959377A, “Phenoxypyridinamine compounds which are use as a dermatological composition” (Hoechst-Roussel Pharmaceuticals Inc., priority 1989, dated 1990).
Counter-ions that a name gives are not always drawn.

Assays:
porcine pancreatic PLA2 = molecular target: T1, porcine pancreatic PLA2 (Sus scrofa, UniProt P00592); assay: In Vitro Phospholipase A2 Assay (PLA2); assay type: biochemical; conditions: 0.01 M test compound, 37° C., pH 8.0; read-out: PLA2 (difference vs. control)
T1 construct: from tissue; host or cells: porcine pancreas
Procedure: In Vitro Phospholipase A2 Assay (PLA2)
The ability of a compound to modulate PLA2 activity (cleavage of ^14 C-dipalmitoyl phosphotidylcholine at the 2-position to ^14 C-palmitic acid) was quantitated in this assay. The reaction mixture contained Tris buffer (25 mM), pH 8.0, calcium chloride (2.0 mM), bovine serum albumin (0.5 mg), dipalmitoyl phosphotidylcholine (8×10^-5M), (^14 C-palmitoyl)dipalmitoyl phosphotidylcholine (6×10^3cpm), porcine pancreatic PLA2 (3.2 units) and the test compound. The reaction was run at 37° C. in a shaking incubator. The reaction was quenched and an internal standard was added in order to determine sample recovery. The samples were loaded onto C18 columns, eluted with ethanol, and the radioactivity was then measured. […] See Feyen, J. H. M., et al., Journal of Chromatography 259 (1983), pp. 338-340.

[1] = system: ear edema induced by topical application of TPA (phorbol 12-myristate acetate); assay: TPA-Induced Ear Edema (TPAEE); assay type: in vivo, Female Swiss Webster mice; conditions: for TPAEE: 10 μg/ear topical, TPA 10 μg/ear, five hours
Procedure: TPA-Induced Ear Edema (TPAEE)
The purpose of this assay was to determine the ability of a topically-applied compound to prevent ear edema induced by topical application of TPA (phorbol 12-myristate acetate). Female Swiss Webster mice topically received TPA (10 μg/ear) on the right ear and vehicle on the left ear. The test compound (10 μg/ear) was applied to both ears. After five hours, the animals were sacrificed and an ear punch (4 mm) was taken from each ear. The difference in right and left ear punch weights for each animal was determined to assess activity. […] See Young, J. M. et al., J. Invest. Dermatol., 80 (1983), pp. 48-52.

[2] = system: naja naja (snake venom) phospholipase A2 -induced paw edema; assay: Phospholipase A2-induced Paw Edema (PIPE); assay type: in vivo, male Wistar rats
Procedure: Phospholipase A2 -induced Paw Edema (PIPE)
The ability of compounds to prevent naja naja (snake venom) phospholipase A2 -induced paw edema in male Wistar rats (100-125 g) was measured. PLA2 (3 units/paw) alone or with 0.1M of the test compound was injected in the subplantar region of the rat left hindpaw. Immediately subsequent to the injection and at two hours post administration the paw was immersed in a mercury bath, and paw displacement was measured on a recorder via a transducer. […] See Giessler, A. J. et al., Agents and Actions, Vol. 10, Trends in Inflammation Research (1981), p. 195.

[3] = system: mouse ear edema induced by topical application of arachidonic acid; assay: Arachidonic Acid-Induced Ear Edema (AAEE); assay type: in vivo, Female Swiss Webster mice
Procedure: Arachidonic Acid-Induced Ear Edema (AAEE)
The purpose of this assay was to determine the ability of a topically-applied compound to prevent mouse ear edema induced by topical application of arachidonic acid. Female Swiss Webster mice topically received vehicle or test compound (1.0 mg/ear) on both ears (10 μl on outer and inner ears). After 30 minutes, the right ear of all groups received arachidonic acid (4 mg/ear) and the left ear received vehicle alone. After an additional 1 hour, the mice were sacrificed and an ear punch (4 mm) was taken from each ear. The difference in right and left ear punch weights for each animal was determined to assess activity. […] See Young, J. M. et al., J. Invest. Dermatol., 80, (1983), pp 48-52.

T1 sequence (P00592 23-146): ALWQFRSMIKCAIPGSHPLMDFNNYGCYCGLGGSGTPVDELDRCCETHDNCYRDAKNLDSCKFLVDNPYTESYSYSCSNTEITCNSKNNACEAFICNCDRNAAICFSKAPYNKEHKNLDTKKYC

SMILES | inhibition at 10000 µM (porcine pancreatic PLA2) [%] | TPAEE [1] [%] | also measured
Nc1ccncc1Oc1ccccc1CO [2-(4-Amino-3-pyridinyloxy)benzenemethanol oxalate] | 82 |  | 
COC(=O)c1ccccc1Oc1cnccc1N [2-(4-Amino-3-pyridinyloxy)benzoic acid methyl ester hydrochloride] | 38 |  | 
COc1ccc(Oc2c[n+]([O-])ccc2[N+](=O)[O-])cc1 [3-(4-Methoxyphenoxy)-4-nitropyridine-1-oxide] |  | -43 | 
Cl.Nc1ccncc1Oc1ccccc1 [3-phenoxy-4-pyridinamine hydrochloride, 3-Phenoxy-4-pyridinamine hydrochloride] | 95 | -60 | PIPE (difference in edema vs. control) ([2]; 0.1 M test compound injected with PLA2 (3 units/paw), subplantar, rat hindpaw, two hours post administration): -79%; AAEE ([3]; 1 mg/ear topical, arachidonic acid 4 mg/ear, 1 hour): -31%
CCOC(=O)Cc1ccc(Oc2cnccc2N)cc1.O=C(O)C(=O)O [4-(4-Amino-3-pyridinyloxy)benzeneacetic acid ethyl ester oxalate] |  | -39 | 
Nc1cnccc1Oc1ccccc1 [4-phenoxy-3-pyridinamine, 4-Phenoxy-3-pyridinamine] |  | -34 | 
CC(=O)Nc1ccncc1Oc1ccccc1 [N-(3-Phenoxy-4-pyridinyl)acetamide hydrochloride] | 73 |  | 
C[C@]12CCC(=O)C=C1CC[C@@H]1[C@@H]2[C@@H](O)C[C@@]2(C)[C@H]1CC[C@]2(O)C(=O)CO [hydrocortisone, reference compound] |  |  | ED50 (PIPE standard) ([2]; standard, rat paw edema): 0.46 M; ED50 (TPAEE standard) ([1]; standard, topical): 47 μg/ear
COc1ccc2c(c1)c(CC(=O)O)c(C)n2C(=O)c1ccc(Cl)cc1 [indomethacin, reference compound] |  |  | ED50 (AAEE standard) ([3]; standard, topical): 1.5 mg/ear
